Laboratory results from publication PMC10671360, “In Silico and In Vitro Study towards the Rational Design of 4,4′-Disarylbisthiazoles as a Selective α-Synucleinopathy Biomarker” (International Journal of Molecular Sciences, 2023).
“Also recorded” adds a separate entry of the source.

What was measured:
[1] = target: α-syn (Homo sapiens, UniProt P37840); parameters: method as in PMID 12657667, PMID 32098280, PMID 18221373; conditions: [^3H]PiB; cited from earlier work
[2] = target: tau (Homo sapiens, UniProt P10636); parameters: method as in PMID 12657667, PMID 32098280, PMID 18221373; conditions: [^3H]PiB; cited from earlier work
Chain of tau (P10636 2-758): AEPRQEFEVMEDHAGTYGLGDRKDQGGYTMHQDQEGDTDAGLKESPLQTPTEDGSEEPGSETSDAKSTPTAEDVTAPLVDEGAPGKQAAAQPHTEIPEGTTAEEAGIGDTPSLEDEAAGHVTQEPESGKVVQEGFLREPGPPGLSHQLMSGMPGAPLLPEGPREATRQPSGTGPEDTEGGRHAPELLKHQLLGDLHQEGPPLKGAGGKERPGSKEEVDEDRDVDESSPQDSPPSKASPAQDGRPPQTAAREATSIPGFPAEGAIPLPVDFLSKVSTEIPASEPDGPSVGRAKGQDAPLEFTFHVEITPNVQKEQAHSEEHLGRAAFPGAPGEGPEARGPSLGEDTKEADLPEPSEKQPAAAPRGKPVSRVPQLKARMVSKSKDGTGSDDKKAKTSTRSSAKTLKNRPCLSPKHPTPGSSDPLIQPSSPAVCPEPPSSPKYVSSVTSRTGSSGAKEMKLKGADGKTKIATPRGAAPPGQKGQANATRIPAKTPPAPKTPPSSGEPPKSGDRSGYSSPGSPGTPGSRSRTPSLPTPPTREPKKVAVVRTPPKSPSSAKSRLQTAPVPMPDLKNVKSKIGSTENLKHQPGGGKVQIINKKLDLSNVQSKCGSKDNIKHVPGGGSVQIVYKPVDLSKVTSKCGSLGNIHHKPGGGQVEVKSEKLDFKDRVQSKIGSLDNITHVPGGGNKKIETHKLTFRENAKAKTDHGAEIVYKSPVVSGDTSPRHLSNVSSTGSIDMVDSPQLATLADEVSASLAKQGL

[3] = target: tau fibrils (Homo sapiens, UniProt P10636); assay: Competition binding assay against [^3H]PiB, tau fibrils
Chain of tau fibrils (P10636 2-758): as above
Method: Recombinant tau monomer (R&D systems, Minneapolis, MN, USA) was dissolved in 20 mM of Tris HCl, pH 8.0, 100 mM of NaCl, 25 μM of low-MW heparin, and 0.5 mM of dithiothreitol to a final concentration of 300 µg/mL. The mixture was incubated with shaking at 900 rpm at 37 °C for 48 h. To separate the non-aggregated monomers from the formed fibrils, the reaction mixture was centrifuged at 12,000× g for 5 min, and the resulting pellet was washed three times with 500 μL of 20 mM Tris-HCl, pH 7.4. The supernatants from the three centrifugation steps were combined, and the concentration of the monomer in the resulting supernatant was determined in a BCA assay(Thermo Fisher Scientific, Waltham, MA, USA) (with a BSA standard curve). Determination of the concentration of fibrils formed was carried out by subtracting the amount of tau peptide monomer in the supernatant from the initial amount used for fibrillation. The pellets of the fibrils obtained above (Section 4.2.1) were resuspended in 20 mM of Tris-HCl, pH 7.4 and diluted as needed for the binding assays. A fixed concentration of [^3H]DCVJ (10 nM) and α-synuclein aggregates (125 nM), prepared as described above (Section 4.2.3), was used with different final concentrations of the DABTAs from 0.01 to 100 nM (see SI Figure S1). The experiment was carried out in quintuplicate for each concentration. The mixture was incubated for 2 h in a final volume of 200 μL per well after dilution with 20 mM of Tris-HCl, pH 7.4. The incubated mixtures were filtered through a Perkin Elmer GF/B glass filter via a TOMTEC cell harvester and immediately washed thrice with 1 mL of deionized water. The filters containing the bound ligands were dried and afterwards mixed with 3 mL of BetaPlate Scint solution (Perkin Elmer Life Sciences, Waltham, MA, USA) and left there for 2 h before counting in a Wallac 1450 MicroBeta TriLux Liquid Scintillation Counter (PerkinElmer Life Sciences, Waltham, MA, USA). For the determination of the inhibition constants, data were analyzed using GraphPad Prism software (version 7.0) to obtain IC50 values by fitting the data to the equation Y = bottom + (top − bottom)/(1 + 10(x − log IC50)). Ki values were calculated from IC50 values using the equation Ki = IC50/(1 + [radioligand]/Kd). […] Further protocol was carried out as for [^3H]DCVJ (see SI Figure S3). […] Further procedures followed the same already described in Section 4.2.3.1 (See SI Figure S4).

[4] = target: T1, recombinant α-syn fibrils (Homo sapiens, UniProt P37840); assay: Competition binding assay against [^3H]PiB, α-syn fibrils; conditions: for Selectivity Aβ/α-syn / Selectivity tau/α-syn: ratio of Ki, [^3H]PiB was used
T1 construct: made in house

[5] = parameters: method as in PMID 35572127; conditions: cited from earlier work
[6] = target: T1, recombinant α-syn fibrils; assay: Competition binding assay against [^3H]DCVJ, α-syn fibrils; conditions: ratio of Ki, [^3H]DCVJ was used
Method: The incubation of purified recombinant α-synuclein monomer (10 mg/mL) obtained as described by Uzuegbunam was carried out in PBS (pH 7.4) at 37 °C. The solution was left shaking at 900 rpm in an Eppendorf Thermomixer for up to 84 h. Determination of the concentration of the formed fibrils (α-syn) was carried out following the centrifugation of the reaction vial at 12,000× g for 5 min. The pellet obtained was washed thrice with 20 mM of Tris-HCl, pH 7.4. The supernatants from the three centrifugation steps were combined, and the concentration of the monomer in the resulting supernatant was determined in a BCA assay (Thermo Fisher Scientific, Waltham, MA, USA) (with a BSA standard curve). Determination of the concentration of α-syn was carried out by subtracting the amount of α-synuclein monomer in the supernatant from the initial amount used for fibrillation.
(§1) The pellets of the fibrils obtained above (Section 4.2.1) were resuspended in 20 mM of Tris-HCl, pH 7.4 and diluted as needed for the binding assays.
(§2) A fixed concentration of [^3H]DCVJ (10 nM) and α-synuclein aggregates (125 nM), prepared as described above (Section 4.2.3), was used with different final concentrations of the DABTAs from 0.01 to 100 nM (see SI Figure S1). The experiment was carried out in quintuplicate for each concentration. The mixture was incubated for 2 h in a final volume of 200 μL per well after dilution with 20 mM of Tris-HCl, pH 7.4. The incubated mixtures were filtered through a Perkin Elmer GF/B glass filter via a TOMTEC cell harvester and immediately washed thrice with 1 mL of deionized water. The filters containing the bound ligands were dried and afterwards mixed with 3 mL of BetaPlate Scint solution (Perkin Elmer Life Sciences, Waltham, MA, USA) and left there for 2 h before counting in a Wallac 1450 MicroBeta TriLux Liquid Scintillation Counter (PerkinElmer Life Sciences, Waltham, MA, USA). For the determination of the inhibition constants, data were analyzed using GraphPad Prism software (version 7.0) to obtain IC50 values by fitting the data to the equation Y = bottom + (top − bottom)/(1 + 10(x − log IC50)). Ki values were calculated from IC50 values using the equation Ki = IC50/(1 + [radioligand]/Kd). […] Further protocol was carried out as for [^3H]DCVJ (see SI Figure S3).

[7] = target: T2, Aβ1−42 fibrils (Homo sapiens, UniProt P05067); assay: Competition binding assay against [^3H]PiB, Aβ1−42 fibrils; conditions: read-out: Ki Aβ
T2 construct: 1 mg of β-amyloid1–42 peptide (Abcam, Cambridge, UK); purchased Abcam
T2 sequence (P05067 672-713): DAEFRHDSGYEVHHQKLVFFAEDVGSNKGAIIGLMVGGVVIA
Method: After the dissolution of 1 mg of β-amyloid1–42 peptide (Abcam, Cambridge, UK) in 50 μL of DMSO, 925 μL of Milli-Q® water was added to it, and the mixture was stirred. Finally, 25 μL of 1M Tris HCl, pH 7.4 was added to bring the final peptide concentration to 1 mg/mL. The mixture was then left to incubate at 37 °C for 30 h with shaking at 900 rpm. To separate the non-aggregated monomers from the formed fibrils, the reaction mixture was centrifuged at 12,000× g for 5 min, and the resulting pellet was washed three times with 500 μL of 20 mM Tris-HCl, pH 7.4. The supernatants from the three centrifugation steps were combined, and the concentration of the monomer in the resulting supernatant was determined in a BCA assay (Thermo Fisher Scientific, Waltham, MA, USA) (with a BSA standard curve). Determination of the concentration of fibrils formed was carried out by subtracting the amount of β-amyloid1−42 peptide monomer in the supernatant from the initial amount used for fibrillation.
as §1, §2
Further procedures followed the same already described in Section 4.2.3.1 (See SI Figure S4).

[8] = Solubility in the incubation medium of the binding assays; format: physicochemical; conditions: incubation buffer of the binding assays

For `[3H]C([3H])([3H])Nc1ccc(-c2nc3ccc(O)cc3s2)cc1` [[^3H]PiB], the Kd [1] is listed as 4.9 nM and the Kd [2] is listed as 117 nM.
For `Fc1ccc(-c2csc(-c3nc(-c4ccc5c(c4)OCO5)cs3)n2)cn1` [d6, 4-(Benzo[d][1,3]dioxol-5-yl)-4′-(6-fluoropyridin-3-yl)-2,2′-bithiazole], the Ki [3] was 799 nM, the Ki [4] was 2.51 nM and the “Selectivity Aβ/α-syn” value [4] was 60.1. For the same molecule, the “Selectivity tau/α-syn” value [4] was 318.2, the “brain uptake and washout” value [5] was “excellent brain uptake and washout” and the “Selectivity Aβ/α-syn” value [6] was 196.0. The “Selectivity tau/α-syn” value [6] was 798.3 and the Ki [7] was 151 nM.
With `Fc1ccc(-c2csc(-c3nc(-c4cnc5c(c4)OCO5)cs3)n2)cn1` [d8, 6-(4′-(6-Fluoropyridin-3-yl)-[2,2′-bithiazol]-4-yl)-[1,3]dioxolo[4,5-b]pyridine] the Ki [4] was 1.01 nM, the “Selectivity Aβ/α-syn” value [4] was 125.8 and the “Selectivity tau/α-syn” value [4] was >990.1. For the same molecule, the “brain uptake and washout” value [5] was “excellent brain uptake and washout”, the “Selectivity Aβ/α-syn” value [6] was 3863.0 and the “Selectivity tau/α-syn” value [6] was >10,000.0. The Ki [7] was 127 nM.
In the case of `ICCOCCOCCOc1cnc(-c2csc(-c3nc(-c4cnc5c(c4)OCO5)cs3)n2)nc1` [h13, 6-(4′-(5-(2-(2-(2-Iodoethoxy)ethoxy)ethoxy)pyrimidin-2-yl)-[2,2′-bithiazol]-4-yl)-[1,3]dioxolo[4,5-b]pyridine], the “solubility in the incubation medium” value [8] is reported as “low solubility; also recorded: decreased solubility” and the Ki [4] is reported as 1.17 nM.
